{
  "source": "patent US10202360B2",
  "about": "(CELGENE QUANTICEL RESEARCH, INC., priority 2016, dated 2019)",
  "target": "CREBBP (Homo sapiens (Human), UniProt Q92793)",
  "sequence (Q92793 1081-1197)": "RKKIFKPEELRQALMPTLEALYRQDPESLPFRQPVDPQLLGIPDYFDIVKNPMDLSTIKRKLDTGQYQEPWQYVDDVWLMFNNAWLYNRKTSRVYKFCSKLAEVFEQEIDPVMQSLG",
  "assay": "In vitro enzyme inhibition assay - CREBBP inhibition (AlphaScreen, biotinylated H4-tetraacetyl peptide)",
  "format": "binding",
  "settings": "Table 28; AlphaScreen, H4-tetraacetyl peptide",
  "summary_of_the_method": "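Displacement of 20 nM biotinylated tetraacetyl-H4 peptide from 50 nM E. coli-expressed His-CREBBP, measured by AlphaScreen after bead equilibration for 2 h.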",
  "note": "pIC50: −log10 of the molar value.",
  "data": [
    {"compound": "CCCS(=O)(=O)Nc1nc(Oc2c(C)cccc2C)nc(-c2cc(C)c(=O)n(C)c2)c1C", "note": "[Example 164, Propane-1-sulfonic acid [6-(1,5-dimethyl-6-oxo-1,6-dihydro-pyridin-3-yl)-2-(2,6-dimethyl-phenoxy)-5-methyl-pyrimidin-4-yl]-amide]", "values": [
      {"measurement": "pIC50", "value": "> 6.30"}
    ]},
    {"compound": "CCCCS(=O)(=O)Nc1cc(-c2cc(C)c(=O)n(C)c2)nc(Oc2cc(C)ccc2Cl)n1", "note": "[Example 15, Butane-1-sulfonic acid [2-(2-chloro-5-methyl-phenoxy)-6-(1,5-dimethyl-6-oxo-1,6-dihydro-pyridin-3-yl)-pyrimidin-4-yl]-amide]", "values": [
      {"measurement": "pIC50", "value": "> 6.30"}
    ]},
    {"compound": "CCC[C@@H](C)Nc1cc(-c2ccc(=O)n(C)c2)nc(Oc2c(C)cccc2C#N)n1", "note": "[Example 317, (R)-3-Methyl-2-[4-(1-methyl-butylamino)-6-(1-methyl-6-oxo-1,6-dihydro-pyridin-3-yl)-pyrimidin-2-yloxy]-benzonitrile]", "values": [
      {"measurement": "pIC50", "value": "> 6.30"}
    ]},
    {"compound": "Cc1cccc(F)c1Oc1nc(N)cc(-c2ccc(=O)n(C)c2)n1", "note": "[Example 332, 5-[6-Amino-2-(2-fluoro-6-methyl-phenoxy)-pyrimidin-4-yl]-1-methyl-1H-pyridin-2-one]", "values": [
      {"measurement": "pIC50", "value": "> 6.30"}
    ]},
    {"compound": "Cc1cccc(F)c1Oc1nc(NC2CCCc3ccccc32)cc(-c2ccc(=O)n(C)c2)n1", "note": "(stereo not drawn) [Example 280, 5-(2-(2-fluoro-6-methylphenoxy)-6-((1,2,3,4-tetrahydronaphthalen-1-yl)amino)pyrimidin-4-yl)-1-methylpyridin-2(1H)-one]", "values": [
      {"measurement": "pIC50", "value": "> 6.30"}
    ]},
    {"compound": "CCCS(=O)(=O)Nc1cc(-c2ccc(=O)n(C)c2)nc(Oc2c(F)cccc2Cl)n1", "note": "[Example 143, Propane-1-sulfonic acid [2-(2-chloro-6-fluoro-phenoxy)-6-(1-methyl-6-oxo-1,6-dihydro-pyridin-3-yl)-pyrimidin-4-yl]-amdie]", "values": [
      {"measurement": "pIC50", "value": "> 6.30"}
    ]},
    {"compound": "CCCS(=O)(=O)Nc1cc(-c2ccc(=O)n(C)c2)nc(Oc2c(C)nn(C)c2C)n1", "note": "[Example 126, Propane-1-sulfonic acid [6-(1-methyl-6-oxo-1,6-dihydro-pyridin-3-yl)-2-(1,3,5-trimethyl-1H-pyrazol-4-yloxy)-pyrimidin-4-yl]-amide]", "values": [
      {"measurement": "pIC50", "value": "> 6.30"}
    ]},
    {"compound": "CCCS(=O)(=O)Nc1cc(-c2cc(C)c(=O)n(C3CC3)c2)nc(Oc2c(C)cccc2C)n1", "note": "[Example 54, Propane-1-sulfonic acid [6-(1-cyclopropyl-5-methyl-6-oxo-1,6-dihydro-pyridin-3-yl)-2-(2,6-dimethyl-phenoxy)-pyrimidin-4-yl]-amide]", "values": [
      {"measurement": "pIC50", "value": "5.30 to 6.30"}
    ]},
    {"compound": "CCCCS(=O)(=O)Nc1cc(-c2cc(C)c(=O)n(C)c2)nc(Oc2c(C)cccc2F)n1", "note": "[Example 19, Butane-1-sulfonic acid [6-(1,5-dimethyl-6-oxo-1,6-dihydro-pyridin-3-yl)-2-(2-fluoro-6-methyl-phenoxy)-pyrimidin-4-yl]-amide]", "values": [
      {"measurement": "pIC50", "value": "> 6.30"}
    ]},
    {"compound": "CN(Cc1ccccc1)c1cc(-c2ccc(=O)n(C)c2)nc(Oc2ccc(F)cc2F)n1", "note": "[Example 275, 5-(6-(benzyl(methyl)amino)-2-(2,4-difluorophenoxy)pyrimidin-4-yl)-1-methylpyridin-2(1H)-one]", "values": [
      {"measurement": "pIC50", "value": "> 6.30"}
    ]},
    {"compound": "CCCS(=O)(=O)Nc1cc(-c2ccc(=O)n(C)c2)nc(Oc2c(C)cccc2C#N)n1", "note": "[Example 109, Propane-1-sulfonic acid [2-(2-cyano-6-methyl-phenoxy)-6-(1-methyl-6-oxo-1,6-dihydro-pyridin-3-yl)-pyrimidin-4-yl]-amide]", "values": [
      {"measurement": "pIC50", "value": "> 6.30"}
    ]},
    {"compound": "CC[C@H](C)S(=O)(=O)Nc1cc(-c2ccc(=O)n(C)c2)nc(Oc2c(C)ccc(F)c2F)n1", "note": "[Example 213, (2S)-Butane-2-sulfonic acid [2-(2,3-difluoro-6-methyl-phenoxy)-6-(1-methyl-6-oxo-1,6-dihydro-pyridin-3-yl)-pyrimidin-4-yl]-amide]", "values": [
      {"measurement": "pIC50", "value": "> 6.30"}
    ]},
    {"compound": "Cc1cccc(F)c1Oc1nc(NS(=O)(=O)CCCC(F)(F)F)cc(-c2ccc(=O)n(C)c2)n1", "note": "[Example 146, 4,4,4-Trifluoro-butane-1-sulfonic acid [2-(2-fluoro-6-methyl-phenoxy)-6-(1-methyl-6-oxo-1,6-dihydro-pyridin-3-yl)-pyrimidin-4-yl]-amide]", "values": [
      {"measurement": "pIC50", "value": "> 6.30"}
    ]},
    {"compound": "COc1cc(-c2cc(NS(=O)(=O)C(C)C)nc(Oc3c(C)cccc3C)n2)cn(C)c1=O", "note": "[Example 105, N-(2-(2,6-dimethylphenoxy)-6-(5-methoxy-1-methyl-6-oxo-1,6-dihydropyridin-3-yl)pyrimidin-4-yl)propane-2-sulfonamide]", "values": [
      {"measurement": "pIC50", "value": "> 6.30"}
    ]},
    {"compound": "Cc1cc(-c2cc(NS(=O)(=O)C(C)C)nc(Oc3cccc4ccn(C)c34)n2)cn(C)c1=O", "note": "[Example 57, Propane-2-sulfonic acid [6-(1,5-dimethyl-6-oxo-1,6-dihydro-pyridin-3-yl)-2-(1-methyl-1H-indol-7-yloxy)-pyrimidin-4-yl]-amide]", "values": [
      {"measurement": "pIC50", "value": "> 6.30"}
    ]},
    {"compound": "Cc1cc(-c2cc(NS(=O)(=O)C(C)(C)C)nc(Oc3ccc(F)cc3F)n2)cn(C)c1=O", "note": "[Example 65, N-(2-(2,4-difluorophenoxy)-6-(1,5-dimethyl-6-oxo-1,6-dihydropyridin-3-yl)pyrimidin-4-yl)-2-methylpropane-2-sulfonamide]", "values": [
      {"measurement": "pIC50", "value": "> 6.30"}
    ]},
    {"compound": "Cc1cccc(C)c1Oc1nc(NS(=O)(=O)C(C)C)cc(-c2cc(C)c(=O)n(C)c2)n1", "note": "[Example 71, N-(6-(1,5-dimethyl-6-oxo-1,6-dihydropyridin-3-yl)-2-(2,6-dimethylphenoxy)pyrimidin-4-yl)propane-2-sulfonamide]", "values": [
      {"measurement": "pIC50", "value": "> 6.30"}
    ]},
    {"compound": "Cn1cc(-c2cc3nc(n2)Oc2cccc(c2)OCCCCCS(=O)(=O)N3)ccc1=O", "note": "[Example 357, 5-(10,10-dioxido-2,4-dioxa-10-thia-11-aza-1(2,4)-pyrimidina-3(1,3)-benzenacycloundecaphane-1^6-yl)-1-methylpyridin-2(1H)-one]", "values": [
      {"measurement": "pIC50", "value": "> 6.30"}
    ]},
    {"compound": "Cc1cc(-c2cc(NCCc3ccccc3)nc(Oc3ccc(F)cc3F)n2)cn(C)c1=O", "note": "[Example 271, 5-(2-(2,4-difluorophenoxy)-6-(phenethylamino)pyrimidin-4-yl)-1,3-dimethylpyridin-2(1H)-one]", "values": [
      {"measurement": "pIC50", "value": "> 6.30"}
    ]},
    {"compound": "Cn1cc(-c2cc(NS(=O)(=O)CC3CC3)nc(Oc3c(F)cccc3Cl)n2)ccc1=O", "note": "[Example 263, N-[2-(2-Chloro-6-fluoro-phenoxy)-6-(1-methyl-6-oxo-1,6-dihydro-pyridin-3-yl)-pyrimidin-4-yl]-C-cyclopropyl-methanesulfonamide]", "values": [
      {"measurement": "pIC50", "value": "> 6.30"}
    ]},
    {"compound": "Cc1cccc(C(C)Nc2cc(-c3ccc(=O)n(C)c3)nc(Oc3c(C)cccc3F)n2)n1", "note": "(stereo not drawn) [Example 288, 5-(2-(2-fluoro-6-methylphenoxy)-6-((1-(6-methylpyridin-2-yl)ethyl)amino)pyrimidin-4-yl)-1-methylpyridin-2(1H)-one]", "values": [
      {"measurement": "pIC50", "value": "> 6.30"}
    ]},
    {"compound": "Cc1cc(-c2cc(NCc3ccccc3)nc(Oc3ccc(F)cc3F)n2)cn(C)c1=O", "note": "[Example 272, 5-(6-(benzylamino)-2-(2,4-difluorophenoxy)pyrimidin-4-yl)-1,3-dimethylpyridin-2(1H)-one]", "values": [
      {"measurement": "pIC50", "value": "> 6.30"}
    ]},
    {"compound": "COc1nc(NCc2ccccc2)cc(-c2ccc(=O)n(C)c2)n1", "note": "[Example 324, 5-(6-Benzylamino-2-methoxy-pyrimidin-4-yl)-1-methyl-1H-pyridin-2-one]", "values": [
      {"measurement": "pIC50", "value": "> 6.30"}
    ]},
    {"compound": "CCCS(=O)(=O)Nc1cc(-c2cc(C)c(=O)n(C)c2)nc(Oc2c(F)cccc2F)n1", "note": "[Example 20, Propane-1-sulfonic acid [2-(2,6-difluoro-phenoxy)-6-(1,5-dimethyl-6-oxo-1,6-dihydro-pyridin-3-yl)-pyrimidin-4-yl]-amide]", "values": [
      {"measurement": "pIC50", "value": "> 6.30"}
    ]},
    {"compound": "Cc1cc(-c2cc(NS(=O)(=O)C(C)C)nc(OC3CCCCC3)n2)cn(C)c1=O", "note": "[Example 250, Propane-2-sulfonic acid [2-cyclohexyloxy-6-(1,5-dimethyl-6-oxo-1,6-dihydro-pyridin-3-yl)-pyrimidin-4-yl]-amide]", "values": [
      {"measurement": "pIC50", "value": "> 6.30"}
    ]},
    {"compound": "Cc1cc(-c2cc(NS(=O)(=O)C(C)C)nc(Oc3ccc(F)cc3F)n2)cn(CC2CCC2)c1=O", "note": "[Example 50, Propane-2-sulfonic acid [6-(1-cyclobutylmethyl-5-methyl-6-oxo-1,6-dihydro-pyridin-3-yl)-2-(2,4-difluoro-phenoxy)-pyrimidin-4-yl]-amide]", "values": [
      {"measurement": "pIC50", "value": "< 5.30"}
    ]},
    {"compound": "Cc1ccc(F)c(Oc2nc(NS(=O)(=O)C(C)C)cc(-c3ccc(=O)n(C)c3)n2)c1F", "note": "[Example 260, Propane-2-sulfonic acid [2-(2,6-difluoro-3-methyl-phenoxy)-6-(1-methyl-6-oxo-1,6-dihydro-pyridin-3-yl)-pyrimidin-4-yl]-amide]", "values": [
      {"measurement": "pIC50", "value": "> 6.30"}
    ]},
    {"compound": "CCCS(=O)(=O)Nc1nc(Oc2c(C)cccc2F)nc(-c2ccc(=O)n(C)c2)n1", "note": "[Example 177, Propane-1-sulfonic acid [4-(2-fluoro-6-methyl-phenoxy)-6-(1-methyl-6-oxo-1,6-dihdyro-pyridin-3-yl)-[1,3,5]triazin-2-yl]-amide]", "values": [
      {"measurement": "pIC50", "value": "> 6.30"}
    ]},
    {"compound": "CCCn1cc(-c2cc(NS(=O)(=O)C(C)C)nc(Oc3ccc(F)cc3F)n2)cc(C)c1=O", "note": "[Example 45, Propane-2-sulfonic acid [2-(2,4-difluoro-phenoxy)-6-(5-methyl-6-oxo-1-propyl-1,6-dihydro-pyridin-3-yl)-pyrimidin-4-yl]-amide]", "values": [
      {"measurement": "pIC50", "value": "5.30 to 6.30"}
    ]},
    {"compound": "CCNc1cc(-c2cc(C)c(=O)n(C)c2)nc(Oc2c(C)cccc2F)n1", "note": "[Example 295, 5-[6-Ethylamino-2-(2-fluoro-6-methyl-phenoxy)-pyrimidin-4-yl]-1,3-dimethyl-1H-pyridin-2-one]", "values": [
      {"measurement": "pIC50", "value": "> 6.30"}
    ]},
    {"compound": "CC[C@@H](C)S(=O)(=O)Nc1cc(-c2ccc(=O)n(C)c2)nc(Oc2c(C)ccc(F)c2F)n1", "note": "[Example 212, (2R)-Butane-2-sulfonic acid [2-(2,3-difluoro-6-methyl-phenoxy)-6-(1-methyl-6-oxo-1,6-dihydro-pyridin-3-yl)-pyrimidin-4-yl]-amide]", "values": [
      {"measurement": "pIC50", "value": "> 6.30"}
    ]},
    {"compound": "CC[C@@H](C)S(=O)(=O)Nc1cc(-c2ccc(=O)n(C)c2)nc(Oc2c(F)cccc2Cl)n1", "note": "[Example 207, Butane-(2R)-sulfonic acid [2-(2-chloro-6-fluoro-phenoxy)-6-(1-methyl-6-oxo-1,6-dihydro-pyridin-3-yl)-pyrimidin-4-yl]-amide]", "values": [
      {"measurement": "pIC50", "value": "> 6.30"}
    ]},
    {"compound": "COc1nc(NCCc2ccccc2)cc(-c2ccc(=O)n(C)c2)n1", "note": "[Example 329, 5-(2-Methoxy-6-phenethylamino-pyrimidin-4-yl)-1-methyl-1H-pyridin-2-one]", "values": [
      {"measurement": "pIC50", "value": "> 6.30"}
    ]}
  ]
}
